Laboratory results taken from ChEMBL document CHEMBL1201862, “PubChem BioAssay data set” (2004).
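Cells were grown in 96-well plates and exposed to each compound for 48 hours at five concentrations; endpoints were interpolated linearly between bracketing concentrations, or set to the highest concentration if not reached. GI50 marks 50% less growth.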 Calls of active or inactive are those of the source. No stated cut-off is given here; in the data, active = GI50 up to about 1.1 µM and inactive = higher.

Assays:
Assay in all cases: inhibition of tumour cell growth, NCI panel, 48 h
SK-OV-3 = system: SK-OV-3
RPMI-8226 = system: RPMI-8226
CCRF-CEM = system: CCRF-CEM
COLO 205 = system: COLO 205
UACC-257 = system: UACC-257
Hs-578T = system: Hs-578T
HOP-62 = system: HOP-62
Malme-3M = system: Malme-3M
K562 = system: K562
NCI-H226 = system: NCI-H226
SK-MEL-28 = system: SK-MEL-28
NCI/ADR-RES = system: NCI/ADR-RES
OVCAR-4 = system: OVCAR-4
OVCAR-5 = system: OVCAR-5
LOX IMVI = system: LOX IMVI
SK-MEL-2 = system: SK-MEL-2
SNB-19 = system: SNB-19
OVCAR-3 = system: OVCAR-3
MOLT-4 = system: MOLT-4
HOP-92 = system: HOP-92
PC-3 = system: PC-3
KM12 = system: KM12
NCI-H23 = system: NCI-H23
HT-29 = system: HT-29
NCI-H460 = system: NCI-H460
ACHN = system: ACHN
MDA-MB-435 = system: MDA-MB-435
SF-539 = system: SF-539
SR = system: SR
UACC-62 = system: UACC-62
SN12C = system: SN12C
A549 = system: A549
786-0 = system: 786-0
HL-60 = system: HL-60
IGROV-1 = system: IGROV-1
TK-10 = system: TK-10
SF-295 = system: SF-295
UO-31 = system: UO-31
MDA-N = system: MDA-N
SF-268 = system: SF-268
T47D = system: T47D
BT-549 = system: BT-549
NCI-H522 = system: NCI-H522
RXF 393 = system: RXF 393
SNB-75 = system: SNB-75
MDA-MB-231 = system: MDA-MB-231
SK-MEL-5 = system: SK-MEL-5
M14 = system: M14
DU-145 = system: DU-145
U-251 = system: U-251
MCF7 = system: MCF7
HCT-15 = system: HCT-15
SW-620 = system: SW-620
HCC 2998 = system: HCC 2998
OVCAR-8 = system: OVCAR-8
HCT-116 = system: HCT-116
EKVX = system: EKVX
A498 = system: A498
CAKI-1 = system: CAKI-1

Measured: GI50

O=C1C=CC2(O[C@H](C3CCCCC3)[C@@H](C3CCCCC3)O2)C(SC(=O)c2ccccc2)C1 (stereo not given in full)
active: RPMI-8226 0.968 µM | NCI-H226 0.82 µM | SK-MEL-28 0.347 µM | OVCAR-3 0.891 µM | MOLT-4 1.09 µM | SR 0.925 µM | T47D 0.975 µM | NCI-H522 1.04 µM | RXF 393 1.01 µM | HCT-116 0.918 µM
3.21 µM: HCT-15
inactive: SK-OV-3 12.9 µM | CCRF-CEM 1.26 µM | COLO 205 5.87 µM | UACC-257 7.05 µM | Hs-578T 1.92 µM | HOP-62 3.23 µM | Malme-3M 3.66 µM | K562 1.4 µM | NCI/ADR-RES 1.43 µM | OVCAR-4 1.25 µM | OVCAR-5 1.88 µM | LOX IMVI 1.41 µM | SK-MEL-2 4.21 µM | SNB-19 1.44 µM | HOP-92 8.39 µM | PC-3 2.23 µM | KM12 6.98 µM | NCI-H23 2.47 µM | HT-29 1.36 µM | NCI-H460 7.8 µM | ACHN 1.94 µM | MDA-MB-435 1.62 µM | SF-539 2.88 µM | UACC-62 2.48 µM | SN12C 1.82 µM | A549 6.07 µM | 786-0 1.68 µM | HL-60 1.79 µM | IGROV-1 1.75 µM | TK-10 2.26 µM | SF-295 7.14 µM | UO-31 1.55 µM | MDA-N 1.78 µM | SF-268 2.62 µM | BT-549 3.1 µM | SNB-75 7.24 µM | MDA-MB-231 1.39 µM | SK-MEL-5 1.77 µM | M14 2.14 µM | DU-145 2.44 µM | U-251 1.91 µM | MCF7 1.48 µM | SW-620 1.91 µM | HCC 2998 1.25 µM | OVCAR-8 1.73 µM | EKVX 6.1 µM | A498 8.41 µM

COC(=O)[C@@H]1c2c(oc3cc(CO)cc(O)c3c2=O)C=C[C@H]1O
2.7 µM: HCT-15
inactive: SK-OV-3 20.5 µM | RPMI-8226 2.49 µM | CCRF-CEM 1.69 µM | COLO 205 5.5 µM | UACC-257 8.85 µM | Hs-578T 24.7 µM | HOP-62 17.9 µM | Malme-3M 1.74 µM | K562 3.28 µM | CAKI-1 8 µM | NCI-H226 25.8 µM | SK-MEL-28 4.16 µM | NCI/ADR-RES 17.9 µM | OVCAR-4 3.52 µM | OVCAR-5 9.51 µM | LOX IMVI 3.32 µM | SK-MEL-2 15.2 µM | SNB-19 17.7 µM | OVCAR-3 8.02 µM | MOLT-4 4.52 µM | HOP-92 8.63 µM | PC-3 7.18 µM | KM12 3.71 µM | NCI-H23 19 µM | HT-29 3.39 µM | NCI-H460 18.6 µM | MDA-MB-435 4.15 µM | SF-539 2.67 µM | SR 5.6 µM | UACC-62 12.3 µM | SN12C 9.86 µM | A549 16.8 µM | 786-0 2.45 µM | HL-60 2.25 µM | IGROV-1 10.8 µM | TK-10 2.34 µM | SF-295 18.4 µM | UO-31 3.78 µM | MDA-N 4.59 µM | SF-268 6.19 µM | T47D 2.7 µM | BT-549 2.94 µM | NCI-H522 1.84 µM | RXF 393 2.8 µM | SNB-75 17.9 µM | MDA-MB-231 14.1 µM | SK-MEL-5 5.73 µM | M14 5.97 µM | DU-145 3.24 µM | U-251 10.5 µM | MCF7 2.86 µM | SW-620 3.11 µM | OVCAR-8 5.56 µM | HCT-116 2.3 µM | EKVX 13.3 µM | A498 7.26 µM

Nc1ncnc2c1ncn2[C@H]1C=C[C@@H](NO)C1
> 100 µM: HCT-15
inactive: SK-OV-3 > 100 µM | RPMI-8226 > 100 µM | CCRF-CEM > 100 µM | COLO 205 > 100 µM | UACC-257 > 100 µM | Hs-578T > 100 µM | HOP-62 > 100 µM | Malme-3M > 100 µM | K562 > 100 µM | CAKI-1 > 100 µM | NCI-H226 > 100 µM | SK-MEL-28 > 100 µM | NCI/ADR-RES > 100 µM | OVCAR-4 > 100 µM | OVCAR-5 > 100 µM | LOX IMVI > 100 µM | SK-MEL-2 > 100 µM | SNB-19 > 100 µM | OVCAR-3 > 100 µM | MOLT-4 > 100 µM | HOP-92 > 100 µM | PC-3 > 100 µM | KM12 > 100 µM | NCI-H23 > 100 µM | NCI-H460 > 100 µM | ACHN > 100 µM | MDA-MB-435 > 100 µM | SF-539 > 100 µM | SR > 100 µM | UACC-62 > 100 µM | SN12C > 100 µM | A549 > 100 µM | 786-0 > 100 µM | IGROV-1 > 100 µM | TK-10 > 100 µM | SF-295 > 100 µM | UO-31 > 100 µM | MDA-N > 100 µM | SF-268 > 100 µM | T47D > 100 µM | BT-549 > 100 µM | NCI-H522 > 100 µM | RXF 393 > 100 µM | SNB-75 > 100 µM | MDA-MB-231 > 100 µM | SK-MEL-5 > 100 µM | M14 > 100 µM | DU-145 > 100 µM | U-251 > 100 µM | MCF7 > 100 µM | SW-620 > 100 µM | HCC 2998 > 100 µM | OVCAR-8 > 100 µM | HCT-116 > 100 µM | EKVX > 100 µM | A498 > 100 µM

CN1CCC23c4c5ccc(O)c4OC2c2[nH]c4ccccc4c2CC3(O)C1C5 (stereo not given)
inactive: SK-OV-3 > 100 µM | RPMI-8226 19.5 µM | CCRF-CEM 22 µM | COLO 205 17.1 µM | UACC-257 18.5 µM | Hs-578T 24.2 µM | HOP-62 > 100 µM | Malme-3M 20.6 µM | K562 14 µM | CAKI-1 47.1 µM | SK-MEL-28 13.7 µM | NCI/ADR-RES > 100 µM | OVCAR-4 38.5 µM | OVCAR-5 > 100 µM | LOX IMVI 21.5 µM | SK-MEL-2 20.6 µM | SNB-19 65.5 µM | OVCAR-3 42.6 µM | MOLT-4 18.6 µM | HOP-92 16.3 µM | PC-3 41.6 µM | KM12 51.2 µM | NCI-H23 > 100 µM | HT-29 31.9 µM | NCI-H460 29.2 µM | ACHN 24.4 µM | MDA-MB-435 18.2 µM | SR 26.6 µM | UACC-62 23.4 µM | SN12C 70.5 µM | A549 53 µM | 786-0 18.7 µM | IGROV-1 66.4 µM | TK-10 18.9 µM | SF-295 52.4 µM | UO-31 15.2 µM | MDA-N 20 µM | SF-268 32.1 µM | T47D 20.8 µM | BT-549 45.1 µM | NCI-H522 37 µM | RXF 393 23.5 µM | SNB-75 36.7 µM | MDA-MB-231 31.5 µM | SK-MEL-5 13.5 µM | M14 17.7 µM | DU-145 97.7 µM | U-251 22.5 µM | MCF7 36.3 µM | SW-620 22.4 µM | HCC 2998 17.5 µM | OVCAR-8 54.8 µM | HCT-116 35.4 µM | EKVX 92.9 µM | A498 18.8 µM
25.6 µM: HCT-15

Clc1ccc(CCNCCNC2(c3cc4ccccc4s3)CCCCC2)cc1Cl
inactive: SK-OV-3 1.46 µM | RPMI-8226 2.34 µM | CCRF-CEM 2.54 µM | COLO 205 1.58 µM | UACC-257 1.81 µM | Hs-578T 2.05 µM | HOP-62 1.26 µM | Malme-3M 1.88 µM | K562 2.31 µM | CAKI-1 1.87 µM | NCI-H226 1.87 µM | SK-MEL-28 1.79 µM | NCI/ADR-RES 1.8 µM | OVCAR-4 1.64 µM | OVCAR-5 1.85 µM | LOX IMVI 1.74 µM | SK-MEL-2 1.76 µM | SNB-19 1.92 µM | OVCAR-3 1.45 µM | MOLT-4 2.49 µM | HOP-92 1.68 µM | PC-3 1.73 µM | KM12 1.6 µM | NCI-H23 1.78 µM | HT-29 1.83 µM | NCI-H460 1.73 µM | ACHN 1.73 µM | MDA-MB-435 2.02 µM | SR 2.02 µM | UACC-62 1.74 µM | SN12C 1.96 µM | A549 1.81 µM | 786-0 1.95 µM | IGROV-1 1.81 µM | TK-10 1.7 µM | SF-295 1.59 µM | UO-31 1.85 µM | MDA-N 1.84 µM | SF-268 1.79 µM | T47D 1.95 µM | BT-549 1.94 µM | NCI-H522 1.84 µM | RXF 393 2.01 µM | SNB-75 1.96 µM | MDA-MB-231 1.78 µM | SK-MEL-5 1.72 µM | M14 2.01 µM | DU-145 1.88 µM | U-251 1.63 µM | MCF7 1.71 µM | SW-620 1.86 µM | HCC 2998 1.5 µM | OVCAR-8 1.84 µM | HCT-116 1.73 µM | EKVX 2.08 µM | A498 1.78 µM
1.92 µM: HCT-15
